Measurements reported in US8420851B2, “Selective TR-β 1 agonist” (Cadila Healthcare Limited, priority 2006, dated 2013).

What was measured:
TR-β = molecular target: T1, TR-β (Homo sapiens, UniProt P10828); assay: In vitro TR-β activity (in-house protocol); type: cell-based; settings: for fold induction at 0.001 µM: Conc. 1 nM; for fold induction at 0.001 µM / fold induction at 0.01 µM / fold induction at 0.1 µM / fold induction at 1 µM: read-out: TR-β Fold Induction w.r.t T3(100 nm); for fold induction at 0.01 µM: Conc. 10 nM; for fold induction at 0.1 µM: Conc. 100 nM; for fold induction at 1 µM: Conc. 1000 nM
T1 sequence (P10828 1-461): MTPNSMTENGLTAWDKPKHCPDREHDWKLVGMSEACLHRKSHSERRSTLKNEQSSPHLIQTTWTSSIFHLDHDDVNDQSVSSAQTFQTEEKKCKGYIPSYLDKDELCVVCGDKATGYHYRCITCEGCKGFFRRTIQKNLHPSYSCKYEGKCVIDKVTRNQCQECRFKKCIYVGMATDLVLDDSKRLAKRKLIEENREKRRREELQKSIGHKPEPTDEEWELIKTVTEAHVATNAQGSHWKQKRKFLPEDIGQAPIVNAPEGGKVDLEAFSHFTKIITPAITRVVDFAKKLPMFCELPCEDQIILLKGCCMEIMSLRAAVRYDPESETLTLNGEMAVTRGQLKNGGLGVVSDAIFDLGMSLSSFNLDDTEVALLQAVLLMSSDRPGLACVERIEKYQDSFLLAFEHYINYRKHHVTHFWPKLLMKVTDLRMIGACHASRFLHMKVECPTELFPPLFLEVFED
Experimental: (§1) Invitro TR-α & TR-β activities were determined as per in-house protocols and the results of representative compounds are provided in tables 1 & 2 below as a proof of the efficacies of the novel class of compounds disclosed above.

TR-α = molecular target: T2, TR-α (Homo sapiens, UniProt P10827); assay: In vitro TR-α activity (in-house protocol); type: cell-based
T2 sequence (P10827 1-410 isoform P10827-2): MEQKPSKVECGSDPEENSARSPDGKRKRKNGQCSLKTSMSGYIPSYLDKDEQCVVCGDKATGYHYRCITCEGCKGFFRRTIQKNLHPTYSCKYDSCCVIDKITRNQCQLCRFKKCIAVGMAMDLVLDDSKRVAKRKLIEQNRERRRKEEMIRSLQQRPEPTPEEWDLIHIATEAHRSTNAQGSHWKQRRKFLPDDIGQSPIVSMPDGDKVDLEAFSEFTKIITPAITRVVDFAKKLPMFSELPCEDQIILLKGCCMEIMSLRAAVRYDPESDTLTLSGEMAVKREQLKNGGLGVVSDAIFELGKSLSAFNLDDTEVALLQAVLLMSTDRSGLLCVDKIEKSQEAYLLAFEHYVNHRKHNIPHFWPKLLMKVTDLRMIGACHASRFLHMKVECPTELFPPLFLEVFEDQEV
Experimental: as §1

In the case of O=C(O)CN(C(=O)Oc1ccc(O)cc1)c1cc(Cl)c(Oc2ccc(O)c(S(=O)(=O)N3CCCCCC3)c2)c(Cl)c1 [Example 57, [{4-[3-(Azepane-1-sulfonyl)-4-hydroxy-phenoxy]-3,5-dichloro-phenyl}-(4-hydroxy-phenoxycarbonyl)-amino]-acetic acid], the fold induction at 0.001 µM (TR-β) is reported as 12.6, the fold induction at 0.01 µM (TR-β) is reported as 14.8 and the fold induction at 0.1 µM (TR-β) is reported as 23.6. The fold induction at 1 µM (TR-β) was 62.5, the “TR-α Fold Induction w.r.t T3(100 nm)” value (TR-α; Conc. 1 nM) was 21.61 and the “TR-α Fold Induction w.r.t T3(100 nm)” value (TR-α; Conc. 10 nM) was 24.62. The “TR-α Fold Induction w.r.t T3(100 nm)” value (TR-α; Conc. 100 nM) was 35.93 and the “TR-α Fold Induction w.r.t T3(100 nm)” value (TR-α; Conc. 1000 nM) was 60.40.

O=C(O)CN(C(=O)Oc1ccc(O)cc1)c1cc(Cl)c(Oc2ccc(O)c(S(=O)(=O)N3CCOCC3)c2)c(Cl)c1 [Example 61, [{3,5-Dichloro-4-[4-hydroxy-3-(morpholine-4-sulfonyl)-phenoxy]-phenyl}-(4-hydroxy-phenoxycarbonyl)-amino]-acetic acid] gave a fold induction at 0.001 µM (TR-β) of 10.2, a fold induction at 0.01 µM (TR-β) of 12.2 and a fold induction at 0.1 µM (TR-β) of 28.9. The fold induction at 1 µM (TR-β) was 85.2, the “TR-α Fold Induction w.r.t T3(100 nm)” value (TR-α; Conc. 1 nM) was 11.55 and the “TR-α Fold Induction w.r.t T3(100 nm)” value (TR-α; Conc. 10 nM) was 12.50. The “TR-α Fold Induction w.r.t T3(100 nm)” value (TR-α; Conc. 100 nM) was 12.30 and the “TR-α Fold Induction w.r.t T3(100 nm)” value (TR-α; Conc. 1000 nM) was 28.11.

With O=C(O)CN(C(=O)Oc1ccc(O)cc1)c1cc(Cl)c(Oc2ccc(O)c(S(=O)(=O)N3CCCC3)c2)c(Cl)c1 [Example 63, [{3,5-Dichloro-4-[4-hydroxy-3-(pyrrolidine-1-sulfonyl)-phenoxy]-phenyl}-(4-hydroxy-phenoxycarbonyl)-amino]-acetic acid] the EC50 (TR-β) was 254 nM and the EC50 (TR-α) was 337 nM.

Molecule Cc1cccc(C(=O)c2cc(Oc3c(Cl)cc(N(CC(=O)O)C(=O)Oc4ccc(O)cc4)cc3Cl)ccc2O)c1 [Example 66, [{3,5-Dichloro-4-[4-hydroxy-3-(3-methyl-benzoyl)-phenoxy]-phenyl}-(4-hydroxy-phenoxycarbonyl)-amino]-acetic acid] has a fold induction at 0.001 µM (TR-β) of 36.7, a fold induction at 0.01 µM (TR-β) of 25.9 and a fold induction at 0.1 µM (TR-β) of 40.7. The fold induction at 1 µM (TR-β) was 55.2, the “TR-α Fold Induction w.r.t T3(100 nm)” value (TR-α; Conc. 1 nM) was 20.56 and the “TR-α Fold Induction w.r.t T3(100 nm)” value (TR-α; Conc. 10 nM) was 15.36. The “TR-α Fold Induction w.r.t T3(100 nm)” value (TR-α; Conc. 100 nM) was 18.11 and the “TR-α Fold Induction w.r.t T3(100 nm)” value (TR-α; Conc. 1000 nM) was 25.75.

O=C(O)CN(C(=O)Oc1ccc(O)cc1)c1cc(Br)c(Oc2ccc(O)c(C(=O)c3ccc(Cl)cc3)c2)c(Br)c1 [Example 67, [{3,5-Dibromo-4-[3-(4-chloro-benzoyl)-4-hydroxy-phenoxy]-phenyl}-(4-hydroxy-phenoxycarbonyl)-amino]-acetic acid] was tested, and the EC50 (TR-β) was 12.8 nM and the EC50 (TR-α) was 49 nM.
